Data taken from US20130116227A1, “BIARYL AMIDE DERIVATIVE OR PHARMACEUTICALLY ACCEPTABLE SALT THEREOF” (DAINIPPON SUMITOMO PHARMA CO., LTD., priority 2010, published 2013).

The compounds below were run against T1, aldosterone receptor (Rattus norvegicus, UniProt P22199) (assay: Binding inhibition test for aldosterone receptor ([3H]aldosterone, rat renal soluble fraction)). Conditions: [3H]aldosterone 2 nM, rat renal soluble fraction, in the presence of 2 μM RU-486, 4° C. about 18 hours; read-out: MR IC50.
T1 construct: centrifuged at 105,000 g for 30 minutes, and then a supernatant was collected as a renal soluble fraction; from tissue; host or cells: rat kidney (adrenalectomized rat), 105,000 g supernatant (cytosol)
T1 sequence (P22199 1-981): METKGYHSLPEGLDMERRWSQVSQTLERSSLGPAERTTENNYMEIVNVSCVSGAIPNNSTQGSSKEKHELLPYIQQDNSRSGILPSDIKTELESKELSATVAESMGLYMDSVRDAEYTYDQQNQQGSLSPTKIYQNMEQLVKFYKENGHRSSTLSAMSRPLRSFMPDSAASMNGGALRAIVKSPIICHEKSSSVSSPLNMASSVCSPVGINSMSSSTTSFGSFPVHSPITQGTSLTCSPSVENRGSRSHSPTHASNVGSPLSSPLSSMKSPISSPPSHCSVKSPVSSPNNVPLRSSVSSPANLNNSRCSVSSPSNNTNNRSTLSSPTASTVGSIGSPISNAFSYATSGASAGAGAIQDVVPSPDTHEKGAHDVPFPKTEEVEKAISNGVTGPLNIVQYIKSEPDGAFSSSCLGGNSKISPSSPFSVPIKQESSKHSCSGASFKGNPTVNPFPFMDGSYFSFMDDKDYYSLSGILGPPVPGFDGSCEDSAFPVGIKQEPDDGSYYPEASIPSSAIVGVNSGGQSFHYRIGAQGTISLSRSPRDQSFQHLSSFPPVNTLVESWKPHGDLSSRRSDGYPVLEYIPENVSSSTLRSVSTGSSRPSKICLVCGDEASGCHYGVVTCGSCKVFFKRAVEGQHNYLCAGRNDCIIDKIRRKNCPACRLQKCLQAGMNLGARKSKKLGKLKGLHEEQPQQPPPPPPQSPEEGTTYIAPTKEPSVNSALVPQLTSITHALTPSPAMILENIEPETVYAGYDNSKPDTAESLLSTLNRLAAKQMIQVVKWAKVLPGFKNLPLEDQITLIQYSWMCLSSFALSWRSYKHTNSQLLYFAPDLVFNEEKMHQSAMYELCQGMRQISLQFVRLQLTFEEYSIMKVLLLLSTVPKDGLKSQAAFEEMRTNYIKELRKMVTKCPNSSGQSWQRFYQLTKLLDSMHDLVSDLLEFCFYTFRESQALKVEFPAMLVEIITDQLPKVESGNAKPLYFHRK
Procedure: Binding Inhibition Test for Aldosterone Receptor
A rat was layed open in flank regions (on both sides) to remove both adrenal glands. After stitching up the incision, the rat was returnd to a breeding cage again. After removing the kidney from the rat reared for about 3 to 5 days, the kidney was homogenized in 0.1 M Tris-HCl, 0.25M sucrose, 0.1M Na2MoO4 and 2 mM DTT buffer solution (pH7.4). The resultant was centrifuged at 105,000 g for 30 minutes, and then a supernatant was collected as a renal soluble fraction.
The rat renal soluble fraction (0.5 to 1.5 mg), a labeled ligand [^3H] aldosterone (2 nM) and a test article were reacted in the presence of 2 μM RU-486 (glucocorticoid receptor antagonist) in 100 μL of total amounts at 4° C. for about 18 hours. Afterwards, to the reaction solution was added 50 μL of 5% dextran-coated activated charcoal, and the mixture was immingled, and then centrifuged at 3,000 g for 5 minutes. Then, a supernatant (100 μL) was collected and mixed with a liquid scintillator ACS-II (Amersham) (3.5 mL), and then analyzed its radioactivity by a liquid scintillation counter (manufactured by Packard, Tri Carb 2700TR). A non-specific binding was obtained by addition of 2 μM aldosterone to a reaction solution. […]
Binding inhibition rate (%)=100−{(B−N)/(B0−N)}×100
B: labeled ligand binding amounts in the presence of a test article and a labeled ligand
B0: labeled ligand binding amounts in the absence of a test article
N: labeled ligand binding amounts in the presence of excess aldosterone (2 μM)
Test example 1 was carried out for compounds obtained in the Examples.
With COc1cc(NC(=O)c2ccc(-c3ccccc3OC(F)(F)F)c(CN3CCC(F)(F)CC3)c2)ccc1S(N)(=O)=O [Example 286] the IC50 was 180 nM.
COc1cc(NC(=O)c2ccc(-c3ccccc3OC(F)(F)F)c(CN3CC(F)(F)C3)c2)ccc1S(N)(=O)=O [Example 287] showed an IC50 of 250 nM.
COc1cc(NC(=O)c2ccc(-c3ccccc3OC(F)(F)F)c(CNC3CC3)c2)ccc1S(N)(=O)=O [Example 288] showed an IC50 of 120 nM.
Compound COc1cc(NC(=O)c2ccc(-c3ccccc3OC(F)(F)F)c(CNC3CCC3)c2)ccc1S(N)(=O)=O [Example 289] has an IC50 of 360 nM.
For COc1cc(NC(=O)c2ccc(-c3ccccc3OC(F)(F)F)c(CNc3nnn[nH]3)c2)ccc1S(N)(=O)=O [Example 293], the IC50 was 270 nM.
Work on COc1cc(NC(=O)c2ccc(-c3ccccc3OC(F)(F)F)c(CN(C)C3CC3)c2)ccc1S(N)(=O)=O [Example 294] yielded an IC50 of 22 nM.
CCN(CC)Cc1cc(C(=O)Nc2ccc(S(N)(=O)=O)c(OC)c2)ccc1-c1ccccc1OC(F)(F)F [Example 295] was tested, and the IC50 was 100 nM.
With COc1cc(NC(=O)c2ccc(-c3ccccc3OC(F)(F)F)c(CN3CCCCC3)c2)ccc1S(N)(=O)=O [Example 297] the IC50 was 190 nM.
In the case of COc1cc(NC(=O)c2ccc(-c3ccccc3OC(F)(F)F)c(CN3CCCCCCC3)c2)ccc1S(N)(=O)=O [Example 299], the IC50 is reported as 140 nM.
With COc1cc(NC(=O)c2ccc(-c3ccccc3OC(F)(F)F)c(CN3CC(C)OC(C)C3)c2)ccc1S(N)(=O)=O (stereo not shown) [Example 302] the IC50 was 61 nM.
COc1cc(NC(=O)c2ccc(-c3ccccc3OC(F)(F)F)c(CN3CCCOCC3)c2)ccc1S(N)(=O)=O [Example 303] was tested, and the IC50 was 150 nM.
COc1cc(NC(=O)c2ccc(-c3ccccc3OC(F)(F)F)c(CN3CC(F)(F)C(F)(F)C3)c2)ccc1S(N)(=O)=O [Example 305] showed an IC50 of 150 nM.
With COc1cc(NC(=O)c2ccc(-c3ccccc3OC(F)(F)F)c(CNC3=NCCO3)c2)ccc1S(N)(=O)=O [Example 309] the IC50 was 230 nM.
CCCOc1ccc(-c2ccc(NC(=O)c3ccc(S(N)(=O)=O)c(OC)c3)cc2CO)c(C(F)(F)F)c1 [Example 313] gave an IC50 of 2200 nM.
COc1cc(C(=O)Nc2ccc(-c3ccc(O)cc3C(F)(F)F)c(CO)c2)ccc1S(N)(=O)=O [Example 315] showed an IC50 of 420 nM.
With COc1cc(C(=O)Nc2ccc(-c3ccc(OCCO)cc3C(F)(F)F)c(CO)c2)ccc1S(N)(=O)=O [Example 320] the IC50 was 2500 nM.
COc1cc(C(=O)Nc2ccc(-c3ccccc3C(F)(F)F)c(CO)c2)ccc1S(N)(=O)=O [Example 323-2] was tested, and the IC50 was 250 nM.
For COc1cc(C(=O)Nc2ccc(-c3ccccc3C(F)(F)F)c(CCl)c2)ccc1S(N)(=O)=O [Example 324], the IC50 was 190 nM.
With COc1cc(C(=O)Nc2ccc(-c3ccccc3C(F)(F)F)c(CNCc3ccco3)c2)ccc1S(N)(=O)=O [Example 329] the IC50 was 220 nM.
COc1cc(C(=O)Nc2ccc(-c3ccccc3C(F)(F)F)c(COCCCO)c2)ccc1S(N)(=O)=O [Example 333] showed an IC50 of 280 nM.
Compound COc1cc(C(=O)Nc2ccc(-c3ccccc3OC(F)(F)F)c(CCO)c2)ccc1S(N)(=O)=O [Example 335] has an IC50 of 350 nM.
COc1cc(C(=O)Nc2ccc(-c3ccccc3CN3CCOCC3)c(C)c2)ccc1S(N)(=O)=O [Example 337] showed an IC50 of 1100 nM.
With COc1cc(C(=O)Nc2ccc(-c3ccccc3N3CCCCC3)c(C)c2)ccc1S(N)(=O)=O [Example 342] the IC50 was 470 nM.
For COc1cc(C(=O)Nc2ccc(-c3ccccc3N3C[C@@H](C)O[C@@H](C)C3)c(C)c2)ccc1S(N)(=O)=O [Example 345], the IC50 was 140 nM.
For COc1cc(C(=O)Nc2ccc(-c3ccccc3NC3CCCC3)c(C)c2)ccc1S(N)(=O)=O [Example 346], the IC50 was 1100 nM.
COc1cc(C(=O)Nc2ccc(-c3ccccc3NC(C)C)c(C)c2)ccc1S(N)(=O)=O [Example 351] gave an IC50 of 1200 nM.
With CCC(CC)NCc1cc(NC(=O)c2ccc(S(N)(=O)=O)c(OC)c2)ccc1-c1ccccc1C(F)(F)F [Example 355] the IC50 was 1000 nM.
With COCCNCc1cc(NC(=O)c2ccc(S(N)(=O)=O)c(OC)c2)ccc1-c1ccccc1C(F)(F)F [Example 357] the IC50 was 130 nM.
In the case of COc1cc(C(=O)Nc2ccc(-c3ccccc3C(F)(F)F)c(CC#N)c2)ccc1S(N)(=O)=O [Example 363], the IC50 is reported as 750 nM.
With COCCNCc1cc(NC(=O)c2ccc(S(N)(=O)=O)c(OC)c2)ccc1-c1ccccc1OC(F)(F)F [Example 364] the IC50 was 540 nM.
CCC(CC)NCc1cc(NC(=O)c2ccc(S(N)(=O)=O)c(OC)c2)ccc1-c1ccccc1OC(F)(F)F [Example 365] gave an IC50 of 460 nM.
COc1cc(C(=O)Nc2ccc(-c3ccccc3C(F)(F)F)c(CN3CC(C)OC(C)C3)c2)ccc1S(N)(=O)=O (stereo not shown) [Example 371] showed an IC50 of 450 nM.
Compound CCOCc1cc(NC(=O)c2ccc(S(N)(=O)=O)c(OC)c2)ccc1-c1ccccc1C(F)(F)F [Example 373] has an IC50 of 100 nM.
In the case of COc1cc(C(=O)Nc2ccc(-c3ccccc3C(F)(F)F)c(CN3CC[C@H](F)C3)c2)ccc1S(N)(=O)=O [Example 376], the IC50 is reported as 380 nM.
For COc1cc(C(=O)Nc2ccc(-c3ccccc3C(F)(F)F)c(CN3CC(F)(F)C3)c2)ccc1S(N)(=O)=O [Example 385], the IC50 was 630 nM.
With COc1cc(C(=O)Nc2ccc(-c3ccccc3C(F)(F)F)c(CN3CCSCC3)c2)ccc1S(N)(=O)=O [Example 387] the IC50 was 360 nM.
COc1cc(C(=O)Nc2ccc(-c3ccccc3C(F)(F)F)c(CNCC(F)F)c2)ccc1S(N)(=O)=O [Example 389] showed an IC50 of 560 nM.
COc1cc(C(=O)Nc2ccc(-c3ccccc3C(F)(F)F)c(CN3CCC(F)CC3)c2)ccc1S(N)(=O)=O [Example 392] gave an IC50 of 450 nM.
With COc1cc(C(=O)Nc2ccc(-c3ccccc3C(F)(F)F)c(CN3CCC4(CC3)OCCO4)c2)ccc1S(N)(=O)=O [Example 393] the IC50 was 520 nM.
For COc1cc(C(=O)Nc2ccc(-c3ccccc3C(F)(F)F)c(CN3CCC4(C3)OCCO4)c2)ccc1S(N)(=O)=O [Example 395], the IC50 was 190 nM.
COc1cc(C(=O)Nc2ccc(-c3ccccc3C(F)(F)F)c(CNC3CC3)c2)ccc1S(N)(=O)=O [Example 403] showed an IC50 of 630 nM.
Work on COc1cc(C(=O)Nc2ccc(-c3ccccc3C(F)(F)F)c(Cn3cccn3)c2)ccc1S(N)(=O)=O [Example 405] yielded an IC50 of 210 nM.
With COc1cc(C(=O)Nc2ccc(-c3ccccc3C(F)(F)F)c(Cn3nccn3)c2)ccc1S(N)(=O)=O [Example 407] the IC50 was 260 nM.
COc1cc(C(=O)Nc2ccc(-c3ccccc3C(F)(F)F)c(COC3CCOCC3)c2)ccc1S(N)(=O)=O [Example 410] showed an IC50 of 520 nM.
With COc1cc(NC(=O)c2ccc(-c3ccc(F)cc3F)c(CNCC(F)F)c2)ccc1S(N)(=O)=O [Example 414] the IC50 was 1700 nM.
Work on COc1cc(NC(=O)c2ccc(-c3ccccc3C)c(CNCC(F)F)c2)ccc1S(N)(=O)=O [Example 415] yielded an IC50 of 630 nM.
COc1cc(NC(=O)c2ccc(-c3ccccc3F)c(CNCC(F)F)c2)ccc1S(N)(=O)=O [Example 419] was tested, and the IC50 was 1200 nM.
COc1cc(NC(=O)c2ccc(-c3ccc(F)cc3Cl)c(CNCC(F)F)c2)ccc1S(N)(=O)=O [Example 426] gave an IC50 of 580 nM.
For COc1cc(NC(=O)c2ccc(-c3ccccc3CC(F)(F)F)c(CNCC(F)F)c2)ccc1S(N)(=O)=O [Example 438], the IC50 was < 10000 nM.
COc1cc(NC(=O)c2ccc(-c3ccc(C)cc3C(F)(F)F)c(CNCC(F)F)c2)ccc1S(N)(=O)=O [Example 440] was tested, and the IC50 was < 10000 nM.
For COc1cc(NC(=O)c2ccc(-c3cc(C)ccc3C(F)(F)F)c(CNCC(F)F)c2)ccc1S(N)(=O)=O [Example 443], the IC50 was < 10000 nM.
With COc1cc(NC(=O)c2ccc(-c3ccccc3C3CC3)c(CNCC(F)F)c2)ccc1S(N)(=O)=O [Example 448] the IC50 was < 10000 nM.
